Experimental data: patent US20120149708A1, “MODULATORS OF VIRAL TRANSCRIPTION, AND METHODS AND COMPOSITIONS THEREWITH” (George Mason University, priority 2010, published 2012)

Experiments:
Format in all cases: cell-based
CEM cells (uninfected) = experiment: Cell viability by trypan blue exclusion, 48 hours; settings: for % Inhibition (percent dead cells) CEM: 10 μM, 48 hours
Method: (§1) TZM-bl cell lines were grown in Dulbecco's modified Eagle's medium supplemented with fetal bovine serum (FBS) (10%, v/v), 2 mM L-glutamine, and antibiotics (penicillin 100 U/ml, streptomycin […]) (cDMEM). HCT116 WT and HCT116 Dicer−/−cell lines were grown in McCoy's medium supplemented with FBS (10%, v/v), 2mM L-glutamine, and antibiotics (penicillin 100 U/ml, streptomycin […]). CEM, ACH2, Jurkat and U937 cells were grown in RPMI 1640 supplemented with FBS, L-glutamine, and antibiotics (penicillin 100 U/ml, streptomycin […]). All cell lines were maintained at 37° C. in 5% (v/v) CO2.
(§2) ACH2 cells are infected with HIV-1; TZM-bl cells contain a stably-integrated HIV-1 LTR-Luciferase reporter; CEM, Jurkat, and U937 cells are uninfected. Transfections were carried out using Attractene (Qiagen) lipid reagent. Cells were cultured to confluence and pelleted at 4° C. for 15 min at 3,000 rpm. The cell pellets were washed twice with 25 ml of phosphate-buffered saline (PBS) with Ca2+ and Mg2+ (Quality Biological) and centrifuged once more. Cell pellets were resuspended in lysis buffer (50 mM Tris-HCl, pH 7.5, 120 mM NaCl, 5 mM EDTA, 0.5%, v/v, NP-40, 50 mM NaF, 0.2 mM Na3VO4, 1 mM DTT, one complete protease cocktail tablet/50 ml (Roche) and incubated on ice for 20 min, with gentle vortexing every 5 min. Cell lysates were transferred to eppendorf tubes and were centrifuged at 10,000 rpm for 10 min. Supernatants were transferred to a fresh tube where protein concentrations were determined using Bio-Rad protein assay (Bio-Rad, Hercules, Calif.).
(§3) In brief, the inhibition studies were carried out as follows. HIV-1 infected cells ACH2, J1.1, OM10.1, U1 and uninfected CEM, Jurkat T-cells, and U937 were cultured in media. The appropriate inhibitor was added at a concentration of 10 μM. Cells were treated for 48 hours and cell viability was determined using trypan blue exclusion method. Results of such a screen for 19 inhibitors is shown in Table 1 where percent dead cells are indicated each drug tested.
(§4) Again HIV-1 infected and uninfected cells were treated with eighteen Formula I compounds at a drug concentration of 50 nm. Forty-eight hours after treatment, cytotoxicity was determined by trypan blue dye exclusion. Percent inhibition was calculated after obtaining the cell density for each well of the tissue culture plate at the end of 48 hrs.

U937 cells (uninfected) = experiment: Cell viability by trypan blue exclusion, 48 hours; settings: for % Inhibition (percent dead cells) U937: 10 μM, 48 hours
Method: as §1, §2, §3, §4

[1] = tested on: J1.1 cells (HIV-1 infected); experiment: Cell viability by trypan blue exclusion, 48 hours; settings: HIV-1 infected; for % Inhibition (percent dead cells) J1.1: 10 μM, 48 hours
Method: as §3, §4

[2] = tested on: U1 cells (HIV-1 infected); experiment: Cell viability by trypan blue exclusion, 48 hours; settings: HIV-1 infected; for % Inhibition (percent dead cells) U1: 10 μM, 48 hours
Method: as §3, §4

[3] = tested on: OM10.1 cells (HIV-1 infected); experiment: Cell viability by trypan blue exclusion, 48 hours; settings: HIV-1 infected; for % Inhibition (percent dead cells) OM10.1: 10 μM, 48 hours
Method: as §3, §4

[4] = tested on: ACH2 cells (HIV-1 infected); experiment: Cell viability by trypan blue exclusion, 48 hours; settings: HIV-1 infected; for % Inhibition (percent dead cells) ACH2: 10 μM, 48 hours
Method: as §1, with “CO2. […]” for “CO2.”
as §3, §4

[5] = tested on: Jurkat T-cells (uninfected); experiment: Cell viability by trypan blue exclusion, 48 hours; settings: for % Inhibition (percent dead cells) Jurkat: 10 μM, 48 hours
Method: as §1, with “CO2. […]” for “CO2.”
as §3, §4

[6] = tested on: HIV-1 infected and uninfected cells; experiment: Classification of inhibitors by effect on viability of infected versus uninfected cells; settings: high
Text: The inhibitors were classified into three categories: high, moderate or poor, according to their effect on cellular viability in both HIV-1 infected and uninfected cells. Among the compounds tested in this study, CR8, a purine analog bearing a 2-pyridyl group para to the phenyl ring position 6 of the purine was the most promising drug candidate that killed HIV-1 infected cells, while having little or no effect on the death of uninfected cells.

HIV-1 LTR-CAT reporter = experiment: CAT assay of Tat-mediated transactivation in HCT116 WT and Dicer-/- cells; settings: HCT116 WT (Dicer) versus Dicer-/-; 48 hrs; Flavopiridol, CR8#13, F07#13 100 nm, 9AA 1000 nm
Method: Six hours later, the transfected cells were treated with DMSO, Flavopirodol (100 nm), CR8#13 (100 nm), F07#13 (100 nm), and 9AA (1000 nm). Treated cells were incubated in complete DMEM for 48 hrs at 37° C. Cells were harvested and cell extracts were used for CAT analysis. One tenth the amount of HCT116 Dicer−/−extract compared to HCT116 WT was used for CAT analysis. […] The corresponding bar graphs in A and B show values that represent the percentage of conversion of the [14C] chloramphenicol substrate in the CAT assay.
Various cells lines were transfected with the HIV-1 LTRCAT plasmid and pc-Tat to initiate the LTR transcription, and subsequently subjected to various drug treatments. After 48 hrs, cells were lysed and CAT assays were performed as previously described (Guendel et al, 2009; Van Duyne et al, 2008; Easley et al, 2010).
To evaluate the role on microRNA machinery in inhibition of viral transcription activity, HCT116 colon carcinoma cell lines that either contained a WT Dicer (HCT116 WT) or lacked the Dicer protein (HCT116 Dicer-−/−) were first transfected with the HIV-1 LTR-CAT reporter construct. The HIV-1 LTR transcription was activated with pc-Tat and following incubation for 6 hours was treated with DMSO (negative control), Flavopiridol (positive control), CR8#13, F07#13, or 9AA.
Cells were harvested 48 hrs-post treatment and processed for CAT assays (FIGS. 3A and B). […] Based on this observation the inventors hypothesize that the microRNA machinery, Dicer and Drosha, plays an inhibitory role in HIV-1 transcription.

[7] = 10 μM, moderate or poor by effect on viability of infected and uninfected cells

| Structure (SMILES) | % Inhibition (percent dead cells) CEM (CEM cells (uninfected)) | % Inhibition (percent dead cells) U937 (U937 cells (uninfected)) | % Inhibition (percent dead cells) J1.1 [1] | % Inhibition (percent dead cells) U1 [2] | % Inhibition (percent dead cells) OM10.1 [3] | % Inhibition (percent dead cells) ACH2 [4] | % Inhibition (percent dead cells) Jurkat [5] | Selectivity [6, 7] | further results |
| --- | --- | --- | --- | --- | --- | --- | --- | --- | --- |
| CC(C)c1cnn2c(NCc3ccc(-c4ccccn4)cc3)nc(N[C@H](CO)C(C)O)nc12 (stereo partly drawn) [MRT3-007, (2R, 3R)-2-(8-isopropyl-4-(4-(pyridine-2-yl)benzylamino)pyrazolo[1,5-α]-1,3,5-triazine-2-ylamino)butane-1,3-diol] | – | – | – | – | – | – | – | – | inhibition at 0.05 µM (CEM cells (uninfected); Homo sapiens, CCRF-CEM, 48 h, 50 nM, 48 hrs, read-out: Inhibition Percentage CEM): 25%; inhibition at 0.05 µM (U937 cells (uninfected); Homo sapiens, U-937, 50 nM, 48 hrs, read-out: Inhibition Percentage U937): 25%; inhibition at 0.05 µM ([1]; Human immunodeficiency virus 1, 48 h, 50 nM, 48 hrs, read-out: Inhibition Percentage J1.1): 50%; inhibition at 0.05 µM ([2]; Human immunodeficiency virus 1, 48 h, 50 nM, 48 hrs, read-out: Inhibition Percentage U1): 50%; inhibition at 0.05 µM ([3]; Human immunodeficiency virus 1, 50 nM, 48 hrs, read-out: Inhibition Percentage OM10.1): 50%; inhibition at 0.05 µM ([4]; Human immunodeficiency virus 1, ACH-2, 48 h, 50 nM, 48 hrs, read-out: Inhibition Percentage ACH2): 50%; inhibition at 0.05 µM ([5]; Homo sapiens, Jurkat, 50 nM, 48 hrs, read-out: Inhibition Percentage Jurkat): 25%; Selectivity ([6]; 50 nM, moderate or poor): Moderate |
| CC[C@H](CO)Nc1nc(NCc2ccc(-c3ccccn3)cc2)n2ncc(C(C)C)c2n1 [MRT3-028, R-2-(8-isopropyl-4-(4-(pyridine-2-yl)benzylamino)pyrazolo[1,5-α]-1,3,5-triazine-2-ylamino)butan-1-ol] | – | – | – | – | – | – | – | – | Inhibition Percentage CEM (CEM cells (uninfected); 50 nM, 48 hrs): ++ (~50%); Inhibition Percentage J1.1 ([1]; 50 nM, 48 hrs): +++ (~75%); Inhibition Percentage U1 ([2]; 50 nM, 48 hrs): + (~25%); Inhibition Percentage ACH2 ([4]; 50 nM, 48 hrs): +++ (~75%); Selectivity ([6]; 50 nM, moderate or poor): High |
| CN1C(=O)C(=C2Nc3ccccc3C2=NO)c2cccc(Br)c21 [1-methyl-7-bromo-indirubin-3′-oxime] | − (1-5%) | − (1-5%) | − (1-5%) | − (1-5%) | − (1-5%) | − (1-5%) | − (1-5%) | Poor | – |
| CC(C)Oc1ccnc2[nH]cc(-c3ccnc(N)n3)c12 [Meriolin 6] | − (1-5%) | ++ (~50%) | +++ (~75%) | − (1-5%) | ++++ (~90%) | +++ (~75%) | − (1-5%) | High | – |
| CC[C@H](CO)Nc1nc(Nc2cccc(-c3ccccn3)c2)c2ncn(C(C)C)c2n1 [R-DRF053] | − (1-5%) | − (1-5%) | − (1-5%) | − (1-5%) | − (1-5%) | − (1-5%) | − (1-5%) | Poor | – |
| CCOc1ccnc2[nH]cc(-c3ccnc(N)n3)c12 [Meriolin4] | + (~25%) | ++ (~50%) | +++ (~75%) | +++ (~75%) | +++ (~75%) | +++ (~75%) | ++ (~50%) | High | – |
| CCCOc1ccnc2[nH]cc(-c3ccnc(N)n3)c12 [Meriolin5] | − (1-5%) | ++ (~50%) | ++ (~50%) | − (1-5%) | ++++ (~90%) | +++ (~75%) | − (1-5%) | High | – |
| Nc1nccc(-c2c3c(O)ccnc3n3c(N)nccc23)n1 [Variollin B] | − (1-5%) | − (1-5%) | + (~25%) | − (1-5%) | − (1-5%) | ++ (~50%) | − (1-5%) | Moderate | – |
| Nc1c2ccccc2nc2ccccc12 [9AA] | – | – | – | – | – | – | – | – | inhibition of viral transcription (CAT) (HIV-1 LTR-CAT reporter): only moderate inhibitory effects |
| COc1ccnc2[nH]cc(-c3ccnc(N)n3)c12 [Meriolin 3] | − (1-5%) | − (1-5%) | + (~25%) | − (1-5%) | − (1-5%) | ++ (~50%) | − (1-5%) | Moderate | – |
